The results in this text go back to patent US10590276B2, “Aqueous suspension of inorganic particulate material” (ImerTech SAS, priority 2013, dated 2020).

The nature of this data set: pH of calcium carbonate slurry after sequential 50 mg/kg additions (Example 2). The class given is physicochemical. Particulars: for δ pH: change per 50 mg/kg aliquot. An excerpt: The pH of the aqueous suspension may be measured using any conventional pH meter. For example, the pH of the aqueous suspension may be measured using the Digital pH meter “Mettler Toledo FE20”, which has been calibrated in accordance with the manufacturer's instructions, using buffer solutions with nominal values of 4, 7 and 9. This may be carried out using either a manual or automatic method, depending on the type of instrument being used.
The pH of the aqueous suspension may be measured by: • mixing a sample of the aqueous suspension to ensure homogeneity, by using either the bench stirrer or the rotating rollers, or by shaking the sample container and contents vigorously; • measuring the temperature of the sample and adjusting the temperature to 22° C.; • removing the pH electrode from its deionised water storage solution and immersing it carefully into the test slurry; • waiting until a stable pH reading is obtained; • recording the pH value of the undisturbed slurry. Viscosity
50 mg/kg aliquots of either AMP or DMEA were sequentially added to 250 g calcium carbonate slurry samples having 78 wt % solids and 60% of particles less than 2 μm in size (measured using a micrometrics sedigraph). In this context, 50 mg/kg means that 50 mg of AMP or DMEA was added per kg of dry inorganic particulate material in the aqueous suspension. The pH of the samples was measured after stirring immediately after each 50 mg/kg addition.

SMILES strings stand for the structures.

As for `CN(C)CCO` [DMEA, Dimethylethanolamine], the “δ pH” value is given as 0.25 (total 50 mg/kg added); 0.17 (total 100 mg/kg added); 0.13 (total 150 mg/kg added); 0.11 (total 200 mg/kg added); 0.07 (total 250 mg/kg added); 0.07 (total 300 mg/kg added). In addition, the “δ pH” value is, setting by setting: (total 350 mg/kg added) 0.06; (total 400 mg/kg added) 0.05; (total 450 mg/kg added) 0.05; (total 500 mg/kg added) 0.05; (total 550 mg/kg added) 0.04; (total 600 mg/kg added) 0.02. Also, the pH of sample (total 50 mg/kg of chemical added) is 9.19; the pH of sample (total 100 mg/kg of chemical added) stood at 9.36; the pH of sample (total 150 mg/kg of chemical added) is recorded as 9.49; the pH of sample (total 200 mg/kg of chemical added) amounted to 9.60; the pH of sample (total 250 mg/kg of chemical added) amounted to 9.67; the pH of sample (total 300 mg/kg of chemical added) came out at 9.74. The pH of sample is, setting by setting: (total 350 mg/kg of chemical added) 9.80; (total 400 mg/kg of chemical added) 9.85; (total 450 mg/kg of chemical added) 9.90; (total 500 mg/kg of chemical added) 9.95; (total 550 mg/kg of chemical added) 9.99; (total 600 mg/kg of chemical added) 10.01.
